US20210214758A1, “METHODS AND TOOLS FOR DETERMINING CLONAL RELATEDNESS AND PREDICTING CLONAL TRAITS” (priority 2018, published 2021)

Experiments:
Klebsiella isolates [1] = conditions: known; cited from earlier work
Klebsiella isolates [2] = assay: Antibiotic susceptibility of Klebsiella clinical isolates per 7-SNP clonotype (Lookup Table 1; disk diffusion); assay type: cell-based, Klebsiella spp.

CC1(C)S[C@@H]2[C@H](NC(=O)[C@H](N)c3ccccc3)C(=O)N2[C@H]1C(=O)O [AMP, ampicillin]
resistance or sensitivity of almost all Klebsiella isolates (Klebsiella isolates [1]): resistant | susceptibility, % (Klebsiella isolates [2]; CT 000): 34% | susceptibility, % (Klebsiella isolates [2]; CT 001): 0% | susceptibility, % (Klebsiella isolates [2]; CT 010): 0% | susceptibility, % (Klebsiella isolates [2]; CT 011): 0% | susceptibility, % (Klebsiella isolates [2]; CT 031): 0% | susceptibility, % (Klebsiella isolates [2]; CT 040): 25% | susceptibility, % (Klebsiella isolates [2]; CT 050): 0% | susceptibility, % (Klebsiella isolates [2]; CT 051): 0% | susceptibility, % (Klebsiella isolates [2]; CT 071): 0% | susceptibility, % (Klebsiella isolates [2]; CT 100): 0% | susceptibility, % (Klebsiella isolates [2]; CT 110): 0% | susceptibility, % (Klebsiella isolates [2]; CT 111): 0% | susceptibility, % (Klebsiella isolates [2]; CT 130): 2% | susceptibility, % (Klebsiella isolates [2]; CT 131): 0% | susceptibility, % (Klebsiella isolates [2]; CT 141): 0% | susceptibility, % (Klebsiella isolates [2]; CT 150): 0% | susceptibility, % (Klebsiella isolates [2]; CT 151): 2% | susceptibility, % (Klebsiella isolates [2]; CT 160): 0% | susceptibility, % (Klebsiella isolates [2]; CT 170): 4% | susceptibility, % (Klebsiella isolates [2]; CT 171): 0% | susceptibility, % (Klebsiella isolates [2]; CT 200): 9% | susceptibility, % (Klebsiella isolates [2]; CT 201): 6% | susceptibility, % (Klebsiella isolates [2]; CT 210): 0% | susceptibility, % (Klebsiella isolates [2]; CT 211): 2% | susceptibility, % (Klebsiella isolates [2]; CT 230): 0% | susceptibility, % (Klebsiella isolates [2]; CT 231): 0% | susceptibility, % (Klebsiella isolates [2]; CT 240): 0% | susceptibility, % (Klebsiella isolates [2]; CT 241): 0% | susceptibility, % (Klebsiella isolates [2]; CT 250): 0% | susceptibility, % (Klebsiella isolates [2]; CT 251): 0% | susceptibility, % (Klebsiella isolates [2]; CT 271): 0% | susceptibility, % (Klebsiella isolates [2]; CT 300): 0% | susceptibility, % (Klebsiella isolates [2]; CT 301): 0% | susceptibility, % (Klebsiella isolates [2]; CT 310): 0% | susceptibility, % (Klebsiella isolates [2]; CT 311): 0% | susceptibility, % (Klebsiella isolates [2]; CT 330): 0% | susceptibility, % (Klebsiella isolates [2]; CT 331): 1% | susceptibility, % (Klebsiella isolates [2]; CT 350): 0% | susceptibility, % (Klebsiella isolates [2]; CT 351): 0% | susceptibility, % (Klebsiella isolates [2]; CT 370): 0% | susceptibility, % (Klebsiella isolates [2]; CT 371): 0% | susceptibility, % (Klebsiella isolates [2]; CT 411): 0% | susceptibility, % (Klebsiella isolates [2]; CT 450): 0% | susceptibility, % (Klebsiella isolates [2]; CT 451): 0% | susceptibility, % (Klebsiella isolates [2]; CT 510): 0% | susceptibility, % (Klebsiella isolates [2]; CT 511): 0% | susceptibility, % (Klebsiella isolates [2]; CT 530): 0% | susceptibility, % (Klebsiella isolates [2]; CT 531): 0% | susceptibility, % (Klebsiella isolates [2]; CT 550): 0% | susceptibility, % (Klebsiella isolates [2]; CT 551): 0% | susceptibility, % (Klebsiella isolates [2]; CT 570): 0% | susceptibility, % (Klebsiella isolates [2]; CT 571): 0% | susceptibility, % (Klebsiella isolates [2]; CT 611): 0% | susceptibility, % (Klebsiella isolates [2]; CT 630): 0% | susceptibility, % (Klebsiella isolates [2]; CT 650): 0% | susceptibility, % (Klebsiella isolates [2]; CT 651): 4% | susceptibility, % (Klebsiella isolates [2]; CT 670): 0% | susceptibility, % (Klebsiella isolates [2]; CT 710): 0% | susceptibility, % (Klebsiella isolates [2]; CT 730): 0% | susceptibility, % (Klebsiella isolates [2]; CT 731): 0% | susceptibility, % (Klebsiella isolates [2]; CT 750): 0% | susceptibility, % (Klebsiella isolates [2]; CT 751): 17% | susceptibility, % (Klebsiella isolates [2]; CT 771): 0% | susceptibility, % (Klebsiella isolates [2]; CT Any Klebsiella spp.): 6%
